Experimental data reported in PubChem BioAssay AID248 (DTP/NCI, 2004).
Several values for one entry are separate records, joined by “and”; a condition that tells them apart may be missing. Equal values may be shown once. Toxic doses and inconclusive results are not listed. No stated cut-off is given here; in the data, active means T/C of 150% or more; inactive means T/C below 125%.

Test system: L1210 leukemia ip in BDF1 mice, survival T/C
Experiment: NCI In Vivo Anticancer Drug Screen. Data for tumor model L1210 Leukemia (intraperitoneal) in B6D2F1 (BDF1) mice
Settings: endpoint: mean survival time, higher = longer survival
In short: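 Each compound was tested against a transplantable tumor grown in mice. The endpoint was survival, with treated animals benchmarked against vehicle controls as a simple ratio.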

[1] = dose: 100.0 mg/kg/injection, schedule: Q01DX001 (ip), vehicle: carboxymethylcellulose (CMC)
[2] = dose: 200.0 mg/kg/injection, schedule: Q01DX001 (ip), vehicle: carboxymethylcellulose (CMC)
[3] = dose: 400.0 mg/kg/injection, schedule: Q01DX001 (ip), vehicle: carboxymethylcellulose (CMC)
[4] = dose: 200.0 mg/kg/injection, schedule: Q04DX002 (ip), vehicle: saline
[5] = dose: 100.0 mg/kg/injection, schedule: Q01DX001 (ip), vehicle: saline
[6] = dose: 200.0 mg/kg/injection, schedule: Q01DX001 (ip), vehicle: saline
[7] = dose: 400.0 mg/kg/injection, schedule: Q01DX001 (ip), vehicle: saline
[8] = dose: 100.0 mg/kg/injection, schedule: Q04DX003 (ip), vehicle: saline with Tween-80
[9] = dose: 200.0 mg/kg/injection, schedule: Q04DX003 (ip), vehicle: saline with Tween-80

Measured: T/C

COc1ccc(-n2c(=O)c(N=Nc3ccc(Br)cc3)c(O)n(-c3ccc(C)cc3)c2=S)cc1
inactive: dose: 50.0 mg/kg/injection, schedule: Q01DX001 (ip), vehicle: Klucel (hydroxypropylcellulose) (HPC) 94 % of control | dose: 100.0 mg/kg/injection, schedule: Q01DX001 (ip), vehicle: Klucel (hydroxypropylcellulose) (HPC) 92 % of control | dose: 200.0 mg/kg/injection, schedule: Q01DX001 (ip), vehicle: Klucel (hydroxypropylcellulose) (HPC) 88 % of control

CC(=O)Nc1ccc(OC(=S)N(C)C)cc1
inactive: dose: 100.0 mg/kg/injection, schedule: Q04DX003 (ip), vehicle: Klucel (hydroxypropylcellulose) (HPC) 96 % of control | dose: 200.0 mg/kg/injection, schedule: Q04DX003 (ip), vehicle: Klucel (hydroxypropylcellulose) (HPC) 97 % of control | dose: 400.0 mg/kg/injection, schedule: Q04DX003 (ip), vehicle: Klucel (hydroxypropylcellulose) (HPC) 101 % of control

c1ccc(N2CCN(c3c4ccccc4nc4ccccc34)CC2)cc1
inactive: dose: 75.0 mg/kg/injection, schedule: Q01DX001 (ip), vehicle: Klucel (hydroxypropylcellulose) (HPC) 105 % of control | dose: 150.0 mg/kg/injection, schedule: Q01DX001 (ip), vehicle: Klucel (hydroxypropylcellulose) (HPC) 105 % of control | dose: 300.0 mg/kg/injection, schedule: Q01DX001 (ip), vehicle: Klucel (hydroxypropylcellulose) (HPC) 96 % of control

NC(=S)N/N=C/c1cc2c(cc1Br)OCO2
inactive: dose: 50.0 mg/kg/injection, schedule: Q01DX001 (ip), vehicle: alcohol 93 % of control | dose: 100.0 mg/kg/injection, schedule: Q01DX001 (ip), vehicle: alcohol 122 % of control | dose: 200.0 mg/kg/injection, schedule: Q01DX001 (ip), vehicle: alcohol 112 % of control | dose: 400.0 mg/kg/injection, schedule: Q01DX001 (ip), vehicle: alcohol 104 % of control

Nc1c(Cl)ncn2c(=O)n(Cc3ccccc3)nc12
inactive: [1] 96 % of control | [2] 105 % of control | [3] 105 % of control

CC(=O)CCC(=O)CCC(=O)O
inactive: dose: 100.0 mg/kg/injection, schedule: Q04DX002 (ip), vehicle: saline 92 % of control | [4] 100 % of control | dose: 400.0 mg/kg/injection, schedule: Q04DX002 (ip), vehicle: saline 95 % of control

Cc1ccc(S(=O)(=O)N(Cc2ccc([N+](=O)[O-])cc2)c2ccccc2)cc1
inactive: [1] 103 % of control | [2] 105 % of control | [3] 100 % of control

NC(=O)Cc1ccc(O)cc1
inactive: dose: 12.5 mg/kg/injection, schedule: Q04DX002 (ip), vehicle: saline with Tween-80 98 % of control | dose: 25.0 mg/kg/injection, schedule: Q04DX002 (ip), vehicle: saline with Tween-80 107 % of control | dose: 50.0 mg/kg/injection, schedule: Q04DX002 (ip), vehicle: saline with Tween-80 93 % of control and 105 % of control | dose: 50.0 mg/kg/injection, schedule: Q04DX002 (ip), vehicle: saline 113 % of control | dose: 100.0 mg/kg/injection, schedule: Q04DX002 (ip), vehicle: saline with Tween-80 98 % of control and 101 % of control | dose: 200.0 mg/kg/injection, schedule: Q04DX002 (ip), vehicle: saline with Tween-80 96 % of control and 98 % of control | [4] 113 % of control | dose: 400.0 mg/kg/injection, schedule: Q04DX002 (ip), vehicle: saline with Tween-80 101 % of control

CC[C@H](CC[C@@H](C)[C@H]1CC[C@H]2[C@@H]3CC=C4C[C@@H](O)CC[C@]4(C)[C@H]3CC[C@]12C)C(C)C
inactive: dose: 12.5 mg/kg/injection, schedule: Q01DX001 (ip), vehicle: saline 93 % of control | dose: 12.5 mg/kg/injection, schedule: Q04DX003 (ip), vehicle: saline 98 % of control | dose: 25.0 mg/kg/injection, schedule: Q01DX001 (ip), vehicle: saline 94 % of control | dose: 25.0 mg/kg/injection, schedule: Q04DX003 (ip), vehicle: saline 105 % of control | dose: 50.0 mg/kg/injection, schedule: Q01DX001 (ip), vehicle: saline 88 % of control | dose: 50.0 mg/kg/injection, schedule: Q04DX003 (ip), vehicle: saline 98 % of control | dose: 75.0 mg/kg/injection, schedule: Q04DX003 (ip), vehicle: saline 89 % of control | [5] 89 % of control and 95 % of control | dose: 115.0 mg/kg/injection, schedule: Q04DX003 (ip), vehicle: saline 91 % of control | dose: 170.0 mg/kg/injection, schedule: Q04DX003 (ip), vehicle: saline 87 % of control | [6] 97 % of control | dose: 255.0 mg/kg/injection, schedule: Q04DX003 (ip), vehicle: saline with Tween-80 90 % of control | dose: 385.0 mg/kg/injection, schedule: Q04DX003 (ip), vehicle: saline with Tween-80 96 % of control | [7] 104 % of control and 107 % of control

CCC1C(=O)CCN(C)C1c1cc2ccccc2[nH]1 (stereo unspecified)
inactive: [1] 105 % of control | [2] 91 % of control

COc1ccccc1C(=O)P(=O)(OC)OC
inactive: [5] 104 % of control | [6] 93 % of control | [7] 95 % of control

O=c1[nH]c2nc3ccccc3nc2c(=O)n1OS(=O)(=O)c1ccccc1
inactive: dose: 100.0 mg/kg/injection, schedule: Q01DX009 (ip), vehicle: Klucel (hydroxypropylcellulose) (HPC) 96 % of control | dose: 200.0 mg/kg/injection, schedule: Q01DX009 (ip), vehicle: Klucel (hydroxypropylcellulose) (HPC) 100 % of control | dose: 400.0 mg/kg/injection, schedule: Q01DX009 (ip), vehicle: Klucel (hydroxypropylcellulose) (HPC) 98 % of control

NC(=O)C[n+]1cccc(C(=O)Nc2ccc(Cl)cc2)c1
inactive: [8] 98 % of control | [9] 101 % of control

CCCN([Si](C)(C)C)[Si](C)(C)C
inactive: dose: 50.0 mg/kg/injection, schedule: Q01DX009 (ip), vehicle: saline with Tween-80 100 % of control | dose: 100.0 mg/kg/injection, schedule: Q01DX009 (ip), vehicle: saline with Tween-80 94 % of control | [8] 99 % of control | dose: 200.0 mg/kg/injection, schedule: Q01DX009 (ip), vehicle: saline with Tween-80 100 % of control | [9] 106 % of control

c1ccc(CN2CCn3nccc32)cc1
inactive: dose: 25.0 mg/kg/injection, schedule: Q01DX009 (ip), vehicle: other 104 % of control | dose: 50.0 mg/kg/injection, schedule: Q01DX009 (ip), vehicle: other 96 % of control | dose: 100.0 mg/kg/injection, schedule: Q01DX009 (ip), vehicle: other 104 % of control | dose: 200.0 mg/kg/injection, schedule: Q01DX009 (ip), vehicle: other 95 % of control

O=C(Nc1cccc(C2=NCCN2)c1)c1ccc2ccc(C(=O)Nc3cccc(C4=NCCN4)c3)cc2c1
inactive: dose: 15.0 mg/kg/injection, schedule: Q01DX Z (ip), vehicle: carboxymethylcellulose (CMC) 111 % of control | dose: 30.0 mg/kg/injection, schedule: Q01DX Z (ip), vehicle: carboxymethylcellulose (CMC) 102 % of control | dose: 60.0 mg/kg/injection, schedule: Q01DX Z (ip), vehicle: carboxymethylcellulose (CMC) 106 % of control | dose: 120.0 mg/kg/injection, schedule: Q01DX Z (ip), vehicle: carboxymethylcellulose (CMC) 113 % of control | dose: 125.0 mg/kg/injection, schedule: Q01DX Z (ip), vehicle: water 118 % of control

Cc1ccc(NC(=O)OCCOc2c(C(C)C)cccc2C(C)C)c([N+](=O)[O-])c1
inactive: dose: 100.0 mg/kg/injection, schedule: Q04DX002 (ip), vehicle: Klucel (hydroxypropylcellulose) (HPC) 94 % of control | dose: 200.0 mg/kg/injection, schedule: Q04DX002 (ip), vehicle: Klucel (hydroxypropylcellulose) (HPC) 96 % of control | dose: 400.0 mg/kg/injection, schedule: Q04DX002 (ip), vehicle: Klucel (hydroxypropylcellulose) (HPC) 92 % of control
